Values quoted from earlier work, collected in patent publication US20260301880A1, “NOSE-TO-BRAIN PHYSIOLOGICALLY BASED PHARMACOKINETIC MODEL” (APTARGROUP INC., priority 2023, published 2026).

What was measured:
[1] = octanol/water
[2] = literature value, porcine nasal mucosa
[3] = not given; remark: listed apart in the source
[4] = humans
[5] = healthy volunteers
[6] = not given; remark: listed apart in the source
[7] = clinical

Row | PbAb - Permeability-surface area product between brain blood and brain mass [4] [L/h] | oral bioavailability [5] | R - Blood/plasma ratio [6] | reported nasal bioavailability [7] [%] | SMILES | LogP [1] | P - Permeability in the nasal epithelium [2] | pKa (acid) (acid) | pKa (base) (base) | fu - fraction unbound in blood plasma [3]
1 | – | – | – | – | CN1C[C@H](C(=O)N[C@]2(C)O[C@@]3(O)[C@@H]4CCCN4C(=O)[C@H](Cc4ccccc4)N3C2=O)C[C@@H]2c3cccc4[nH]cc(c34)C[C@H]21 [DHE, dihydroergotamine] | 2 | 1.48 × 10^−7 | 9.71 | 8.39 | 0.03
2 | 1.875 | – | – | – | CC(=O)Nc1ccc(O)cc1 [paracetamol] | – | – | – | – | –
3 | – | low | 1 | 16 | CNS(=O)(=O)Cc1ccc2[nH]cc(CCN(C)C)c2c1 [sumatriptan] | – | – | – | – | 0.63
